Columns and labels:
RPS19 = RPS19 expression in differentiating HSPCs (qRT-PCR); assay type: cell-based, human; conditions: differentiating RPS19-insufficient HSPCs
Description: As the suppression of NLK by miRNAs has been documented, we sought to screen a number of common nutritional supplements that have been documented to modulate miRNAs in their ability to improve erythroid expansion in an in vitro model of DBA. To induce ribosomal insufficiency, CD34+ HSPCs from human cord blood were transduced with a shRNA against RPS19 that reduced RPS19 expression by approximately 50% to recapitulate decreased function due to RPS19 mutations in DBA patients. As described above, metformin improves erythroid expansion by miRNA-mediated suppression of NLK mRNA expression and was therefore included as a positive control. […] Efficacy of shRNA against RPS19 was quantified by qRT-PCR. […] To determine if the ginsenoside Rb1 effect was through the inhibition of NLK, we treated differentiating HSPCs with ginsenoside Rb1 that were transduced with a non-targeting control or siRNA against NLK. Ginsenoside R1 alone or siRNA against NLK alone improved erythroid expansion by 2.7- and 5.1-fold, respectively.

NLK [1] = assay: NLK expression in differentiating human progenitors (qRT-PCR, Western blot); assay type: cell-based; set-up: reduction of endogenous NLK expression: concentration or dose not given beside the values
NLK [2] = target: T1, NLK (Homo sapiens, UniProt Q9UBE8); assay: Kinase assay of NLK immunopurified from treated differentiating human progenitors; assay type: cell-based; set-up: 5000 cells per treatment were lysed and immunopurified NLK was subjected to in vitro kinase assay; endogenous in cells; host or cells: human cord blood CD34+ HSPCs transduced with shLuc / shRPS19 / shRPL11, differentiating in erythroid medium; conditions: NLK from ginsenoside Rb1-treated RPS19-insufficient progenitors
T1 sequence (Q9UBE8 1-527): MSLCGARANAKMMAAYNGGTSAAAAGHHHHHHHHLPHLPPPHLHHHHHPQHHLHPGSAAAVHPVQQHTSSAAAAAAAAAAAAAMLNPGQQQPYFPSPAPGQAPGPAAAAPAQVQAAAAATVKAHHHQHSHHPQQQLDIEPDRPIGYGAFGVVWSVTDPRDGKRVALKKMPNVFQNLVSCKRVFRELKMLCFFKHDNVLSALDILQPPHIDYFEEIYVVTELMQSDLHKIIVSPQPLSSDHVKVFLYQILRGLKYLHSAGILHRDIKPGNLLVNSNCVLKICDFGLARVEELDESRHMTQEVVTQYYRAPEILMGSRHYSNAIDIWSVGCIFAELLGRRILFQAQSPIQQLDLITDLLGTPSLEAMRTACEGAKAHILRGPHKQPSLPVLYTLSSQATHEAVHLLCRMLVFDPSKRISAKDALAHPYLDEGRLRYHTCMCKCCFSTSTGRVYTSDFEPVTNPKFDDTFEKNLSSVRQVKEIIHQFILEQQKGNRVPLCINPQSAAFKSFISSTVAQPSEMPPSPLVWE

[3] = tested on: BFU-E erythroid and CFU-GM myeloid colonies; assay: Colony assays in methylcellulose (BFU-E, CFU-GM); assay type: cell-based, human; conditions: metformin
Protocol: FIG. 9. Metformin improves expansion of CD235+ erythroblasts and BFU-E erythroid colony formation in human RPS19- and RPL11-insufficiency from CB CD34+ progenitors. (Panel A). CD34+ HSPCs were transduced with shRNA against control (shLuc), RPS19 (shRPS19) or RPL11 (shRPL11) and after sorting, were differentiated for 14 days in the presence or absence of 50 mM metformin. Cells were counted and the percentage expressing CD235+ erythroid (left) and CD11b+ myeloid (right) was determined by flow cytometry. Obtained values were multiplied to give an overall number that was normalized to the untreated control (grey columns). Values are presented as a percentage of the untreated control. (Panel B) Direct comparison between metformin treated and untreated cultures is facilitated by normalizing the metformin-treated values to the untreated values in control, RPS19- and RPL11-insufficient groups. Values are expressed as a fold induction relative to untreated. (Panel C) Transduced and sorted CD34+ progenitors were cultured in methylcellulose in the presence or absence of metformin for 16 days and BFU-E erythroid (left) and CFU-GM myeloid (right) colonies scored. Values are represented as the percentage of colonies induced in untreated controls (grey columns). (Panel D). To directly compare the effect of metformin in each group, metformin-treated cultures were normalized to untreated cultures and are expressed as a fold induction of the untreated control. (Panel E) Representative images of BFU-E colonies at day 14.Scale bar=[…]. […] Statistics: two-tailed Student's t test, significant *P<0.05
Sorted hematopoietic cells were seeded in methylcellulose medium containing IL-3, stem cell factor, granulocyte macrophage colony-stimulating factor, and erythropoietin (H4434; […] Technologies) in triplicate, with 1000 cells per plate. Erythroid (burst-forming unit erythroid) and myeloid (colony-forming unit, granulocyte-macrophage) colonies were counted 14-18 days later. In some cases, 3000 (shRPL11) or 5000 (shRPS19+TGFβ) cells per plate were added to ensure enough colonies for robust statistical analysis.
Sorted HSPCs were seeded in cytokine-containing methylcellulose medium (H4434; […] Technologies) in triplicate, with 1000 cells per plate. Erythroid (burst-forming unit erythroid) and myeloid (colony-forming unit, granulocyte-macrophage) colonies were counted 14-18 days later.

[4] = ginsenoside Rb1, metformin, alone and combined

Row | Compound | influence on RPS19 expression (RPS19) | reduction of NLK protein (NLK [1]; differentiating HSPCs, 5 mM) [%] | suppression of NLK expression (NLK [1]; [4]) [%] | reduction of endogenous NLK expression (NLK [1]; ginsenoside Rb1-treated differentiating HSPCs (miRNA sponge experiment)) [%] | suppression of NLK expression (NLK [1]; miRNA species transduced into differentiating HSPCs, ginsenoside Rb1 for comparison) [%] | reduced NLK kinase activity (NLK [2]) [%] | fold increase of BFU-E colonies ([3]; RPL11-insufficiency) [fold] | BFU-E erythroid colonies, % of vector control (shLuc) ([3]; RPL11-insufficiency, 8.2% untreated) [%] | fold increase of BFU-E colonies ([3]; RPS19-insufficiency) [fold] | BFU-E erythroid colonies, % of vector control (shLuc) ([3]; RPS19-insufficiency, 7.7% untreated) [%] | size of BFU-E colonies ([3]; RPS19-insufficient progenitors) | effect on CFU-GM colonies [3]
1 | CC(C)=CCC[C@](C)(O[C@@H]1O[C@H](CO[C@@H]2O[C@H](CO)[C@@H](O)[C@H](O)[C@H]2O)[C@@H](O)[C@H](O)[C@H]1O)[C@H]1CC[C@]2(C)[C@@H]1[C@H](O)C[C@@H]1[C@@]3(C)CC[C@H](O[C@@H]4O[C@H](CO)[C@@H](O)[C@H](O)[C@H]4O[C@@H]4O[C@H](CO)[C@@H](O)[C@H](O)[C@H]4O)C(C)(C)[C@@H]3CC[C@]12C [ginsenoside Rb1] | did not influence | 31.5 | 34.6 | 44.8 | 34.6 | 44.8 |  |  |  |  |  | 
2 | CN(C)C(=N)N=C(N)N [metformin] |  |  | 59.4 |  |  |  | 2.2 | 14.3 | 2.9 | 16.3 | only modestly improve | did not affect

Source: US12403132B2, “Methods of treating bone marrow failure syndromes and compositions for use in the same” (The Board of Trustees of the Leland Stanford Junior …, priority 2020, dated 2025)
